Assay [1] is described as follows: Increase in the pancreatic weight in a model of spontaneous chronic pancreatitis (3 months). Type of assay: in vivo, male WBN/Kob rats. Conditions: treated group, 0.2% in feed, 140 mg/kg/day, three months; control 773 ± 17; **p < 0.01 vs. control. From the text: (§1) Since the decrease in the amount of pancreatic parenchyma resulting from chronic pancreatitis causes loss of pancreatic weight, any suppression of the decrease in the amount of pancreatic parenchyma can be used as an index for evaluating any improvement in the pancreatitis. Furthermore, since degeneration and necrosis of the pancreatic parenchyma and its replacement by connective tissue occurs in chronic pancreatitis, the seriousness of the pancreatitis can be estimated by histopathologically measuring the area over which the pancreatic parenchyma is replaced with connective tissue (known as the "cicatrized area").
Measurement of the weight of the pancreas may be carried out by conventional procedures after the experimental animals have been sacrificed by phlebotomy.
The test animals were male WBN/Kob rats, which are commonly used as models of spontaneous chronic pancreatitis and suffer pancreatic weight loss and dysfunction of the exocrine pancreatic tissue due to degeneration and necrosis of the pancreatic parenchyma and its replacement by connective tissue [Tsuchitani et al., Laboratory Animals, 19(3), 200-207, (1985)]. […] After the rats had been fed with the feeds for three months, the pancreas of each animal was totally enucleated and its weight was measured.

A short description of assay [2]: Histopathology of pancreatic tissue of Example 2: total cross-sectional area and cicatrized area. In kind it is in vivo, male WBN/Kob rats. The following applies: 0.2% in feed, three months.
Excerpt: as §1
The measurement of the cicatrized area may also be carried out by conventional procedures. More specifically, male WBN/Kob rats are used as models of spontaneous chronic pancreatitis and are fed with a powdered feed admixed with a test compound. The pancreas of each animal is then totally enucleated. Its weight is measured and also the cicatrized area is measured relative to the total cross-sectional area of the pancreas tissue sliced by an image analyser.
The test animals were male WBN/Kob rats, which are commonly used as models of spontaneous chronic pancreatitis and suffer pancreatic weight loss and dysfunction of the exocrine pancreatic tissue due to degeneration and necrosis of the pancreatic parenchyma and its replacement by connective tissue [Tsuchitani et al., Laboratory Animals, 19(3), 200-207, (1985)]. Each group of test animals contained 4 animals, and the animals were used for the experiment when they had reached 12 weeks old. The animals were fed with powdered feed F2 mixed with 0.2% of troglitazone for three months. This group is hereinafter referred to as "the treated group". The average dose of the compound during this period was 140 mg/kg/day. Meanwhile, another four rats (control group) were fed with the powdered feed F2 only. After the rats had been fed with the feeds for three months, the pancreas of each animal was totally enucleated and its weight was measured.
In order to evaluate the results of Example 2 histopathologically, each pancreas used for weight measurement in Example 2 was fixed in 10% neutral formalin. It was then divided into a spleen side half and a duodenum side half, and each half was sliced at 3 mm intervals to provide cross-sectional tissue pieces. […] The total cross-sectional area of the pancreatic tissue piece on each preparation was measured using an image analyser (SPICCAII, manufactured by Olympus Optical Co., Ltd.).
In addition, the surface area of the zone which had undergone degeneration and necrosis and in which the exocrine pancreatic tissue was replaced with connective tissue (the cicatrized area) was measured using an image analyser.

Molecule `Cc1c(C)c2c(c(C)c1O)CCC(C)(COc1ccc(CC3SC(=O)NC3=O)cc1)O2` (centres unmarked) [troglitazone, 5-[4-(6-Hydroxy-2,5,7,8-tetramethylchroman-2-ylmethoxy)benzyl]thiazolidine-2,4-dione] had a Pancreatic weight in assay [1] of 936 ± 27 mg. Moreover, the “Cicatrized area in the exocrine pancreatic tissue” value in assay [2] (duodenum side half, control 10.84 ± 0.60, *p < 0.05) is reported as 6.76 ± 1.37 mm^2; in assay [2] (spleen side pancreatic half, control 5.95 ± 0.90, *p < 0.05) it was 3.31 ± 0.48 mm^2. Moreover, the “Total cross-sectional area of pancreatic tissue piece” value in assay [2] (duodenum side half, control 89.5 ± 6.6) came out at 132.8 ± 23.6 mm^2; in assay [2] (spleen side pancreatic half, control 150.5 ± 4.6, *p < 0.05) it was 172.6 ± 5.3 mm^2.

The values above are taken from US5753681A, “Treatment and prophylaxis of pancreatitis” (Sankyo Company, Limited, priority 1996, dated 1998).
